From US20130065227A1, “METHODS OF INCREASING MACROPINOCYTOSIS IN CANCER CELLS” (priority 2010, published 2013)

Assays:
Assay in all cases: Stimulation of macropinocytosis (dextran uptake)
MCF10A = format: cell-based, human; details: MCF10A; Non-cancer, breast epithelial
Description: FIG. 10 are graphs showing the stimulation of macropinocytosis by GROs. Breast carcinoma cells (MDA-MB-231, MCF-7) or non-malignant breast epithelial cells (MCF10A) cells were plated 18 hr before treatment with 10 μM tAS1411 or 10 μM tCRO or water in complete DMEM medium at 37° C. for 48 hr or 72 hr. After treatment, cell medium was changed for fresh complete medium containing 0.2 mg/ml dextran-10K labeled with Alexa Fluor 488 and cells were incubated for 30 min at 37° C. Cells were then incubated on ice with 1 mg/ml PI in PBS, harvested, and analyzed by flow cytometry. Uptake was normalized to no pre-treatment controls and bars show the mean and SE of three independent experiments. […]
AS1411 causes a change in cancer cell morphology that is characterized by vacuolization, irregular nuclei, and swollen cells (Xu et al., 2001, J. Biol. Chem., 276:43221-30). […] To test this idea, DU145 cells were pre-treated for 24 h with tAS1411, then added FL-AS1411 and evaluated uptake after an additional 2 h using flow cytometry. […] This idea is not necessarily inconsistent with the time course data shown in FIG. 1A because the fluorescence signal may decrease over time for a number of reasons, including exocytosis of the ligand and fluorescence quenching due to protein binding or environmental factors (the fluorophore used for flow cytometry is particularly sensitive to acidic environments). […]

A549 = format: cell-based; details: Cancer, non-small cell lung
Source text: (§1) It has recently been discovered that AS1411 can stimulate macropinocytosis (MP) in cancer cells and this finding was verified by several different methods and in multiple cancer cell lines (Table 1).

BEAS2B = format: cell-based; details: Non-cancer, lung epithelial
Source text: as §1

CHO = format: cell-based; details: Non-cancer, hamster ovary
Source text: as §1

RCC4 = format: cell-based; details: Cancer, renal cell
Source text: as §1

RWPE1 = format: cell-based; details: Non-cancer, prostate epithelial
Source text: as §1

SK-N-DZ = format: cell-based; details: Cancer, neuroblastoma
Source text: as §1

DU145 = format: cell-based
Description: (Panel A) DU145 cells were treated with 10 μM tAS1411 or 10 μM tCRO or no oligonucleotide in complete DMEM medium at 37° C. for the time indicated. After treatment, cell medium was changed for fresh complete medium containing 0.2 mg/ml dextran-10K labeled with Alexa Fluor 488, and cells were incubated for 30 min at 37° C. After incubation, cells were harvested and analyzed by flow cytometry to determine dextran uptake. (Panel B) The same experiment was performed using Hs27 cells. (Panel C) DU145 cells were treated with 10 μM tAS1411 or 10 μM tCRO or no oligonucleotide in complete DMEM medium at 37° C. for 48 h. After treatment, cell medium was changed for fresh complete medium containing 0.2 mg/ml dextran-10K tagged with Alexa Fluor 488, and cells were incubated for 30 min at 37° C. Then, cells were washed with cold PBS, added PBS containing 5 μg/ml PI and incubated on ice for 5 min. After washing with cold PBS, cells were fixed and the distribution of macropinocytic marker was visualized by confocal microscopy. The nucleus was stained with DAPI (blue). Scale bars, 10 μm. All experiments have been repeated at least three times. Data are mean of three independent samples; bars, SE; *(p<0.05).
FIG. 6 are graphs showing that nucleolin regulates AS1411-induced stimulation of macropinocytosis. DU145 cells were untreated (no transfection) or transfected, without siRNA (mock), or with 30 nM of one of three different nucleolin siRNAs (NCL1, NCL2, NCL3) or a control siRNA (scramble). 48 h after transfection, cells were incubated with 10 μM tAS1411, 10 μM tCRO, or no oligonucleotide in complete DMEM medium at 37° C. for 24 h. (Panel A) After treatment, cell medium was changed for fresh complete medium containing 0.2 mg/ml dextran-10K labeled with Alexa Fluor 488 (green) and incubated for 30 min at 37° C. (Panel B) After treatment, some cells were washed, fresh complete medium containing 10 μM FL-AS1411 added and incubated for 2 h at 37° C. After incubation, cells were harvested and analyzed by flow cytometry. Mean fluorescence was normalized to “not transfected” control (Panel A) or to no pre-treatment control (Panel B). All experiments have been repeated at least three times. Data are the mean of three independent samples; bars, SE; *(p<0.05).
FIG. 11 is a graph showing a comparison between AS1411 and tAS1411 in the ability to stimulate macropinocytosis. DU145 cells were plated 18 hr before treatment with different concentrations (0, 5, 10, or 15 μM) of AS1411, tAS1411 or tCRO in complete DMEM medium at 37° C. for 48 h. After treatment, cell medium was changed for fresh complete medium containing 0.2 mg/ml dextran-10K labeled with Alexa Fluor 488, and cells were incubated for 30 min at 37° C. After incubation, cells were incubated on ice with […] PI in PBS, harvested, fixed and immediately analyzed by flow cytometry.
To analyze uptake of the oligodeoxynucleotides or dextran-10K (macropinocytic marker) by flow cytometry, 2×10^5 cells in fresh supplemented culture medium (2.5 ml) were plated into 6-well plates for 18 h. After complete adhesion, the cells were incubated with 5′-FAM tagged oligodeoxynucleotides or Alexa Fluor 488 tagged dextran-10K and incubated as indicated in the Description of the Drawings. Cells were washed once with ice-cold PBS, incubated with 1 μg/ml 7-amino-actinomycin D (7-AAD) for 5 min on ice or 1 μg/ml propidium iodide (PI), and washed twice with ice-cold PBS. Cells were then treated with 0.01% trypsin/0.5 mM EDTA (300 μl) for 3 min prior addition 3 ml supplemented culture medium. The cells were then centrifuged and resuspended in 0.5 ml of 1% paraformaldehyde for analysis by flow cytometry using a FACScalibur cytometer (BD Biosciences, Mountain View, Calif.).
AS1411 causes a change in cancer cell morphology that is characterized by vacuolization, irregular nuclei, and swollen cells (Xu et al., 2001, J. Biol. Chem., 276:43221-30). […]

5′-d(GGTGGTGGTGGTTGTGGTGGTGGTGG) [AS1411]
Stimulate MP? (MCF10A): No | Stimulate MP? (A549): Yes | Stimulate MP? (BEAS2B): No | Stimulate MP? (CHO): No | Stimulate MP? (RCC4): Yes | Stimulate MP? (RWPE1): No | Stimulate MP? (SK-N-DZ): Yes | stimulation of macropinocytosis compared with tAS1411 (DU145; 0, 5, 10, or 15 μM for 48 h): same response as tAS1411 | dextran uptake after treatment for shorter times (DU145; 1 h, 2 h, and 4 h): No changes in dextran uptake | Stimulate MP? (DU145; DU145, Cancer, prostate): Yes
